In patent US12433870B2, “Supramolecular photoprotection of a photosensitizer” (Northwestern University, priority 2019, dated 2025):

Tested on: A2780 cells
Experiment: Annexin V FITC/7-AAD apoptosis assay
Assay type: cell-based
Details: for intact cells: dark conditions
Experimental: A2780 cells (5×10^5 cells/mL, 100 μL) were seeded in each well of a Black 96-well plate and incubated with 5 or 10 μM PBS solution of ExBox^4+⊃DPP for 12 h. After incubation, cells were washed with 1×PBS, added with 100 μL of DMEM and immediately irradiated with visible light using Max-303 Xenon Light Source (385-740 nm, Asahi Spectra) at 25 and 50 mW light intensities for 10 min. After irradiation, cells were incubated for an additional 3 h prior to being trypsinized and recovered for annexin V staining. 50 μL of Annexin V solution (1:50 FITC Annexin V in Annexin V staining buffer) was added to cells and was incubated at room temperature for 20 min. 500 μL of 1×PBS was then added to cells, which were centrifuged at 400 ref for 5 min, and the supernatant was discarded. Cells were resuspended in 100 μL of 1:20 7-AAD in cell staining buffer and were incubated for 10 min prior to analysis on a BD Fortessa flow cytometer. Cells were first gated for singlet events using FSC-A vs. FSC-H, after which debris was excluded used FSC-A vs. SSC-A. All remaining events were gated as live, dead, or apoptotic based on annexin V staining vs. 7-AAD staining, with dead cells staining 7-AAD+, live cells staining as 7-AAD- and annexin-V-, and apoptotic cells staining 7-AAD-annexin-V+. Cells without irradiation were used as controls.

SMILES: C1=Cc2nc1cc1ccc([nH]1)c(-c1ccccc1)c1nc(cc3ccc([nH]3)c2-c2ccccc2)C=C1.c1cc2ccc1C[n+]1ccc(cc1)-c1ccc(cc1)-c1cc[n+](cc1)Cc1ccc(cc1)C[n+]1ccc(cc1)-c1ccc(cc1)-c1cc[n+](cc1)C2 [ExBox^4+⊃DPP]
- intact cells (5 μM): 79%
- apoptotic cells (10 μM versus 5 μM, 0.078 or 0.156 Jcm^−2 light dose, 3 h post irradiation): a smaller number of apoptotic cells
- intact cells (10 μM): 72%
